Measurements reported in patent US5789431A, “Naphthoquinone antitumor compound and method” (The University of North Carolina at Chapel Hill, priority 1996, dated 1998).

Key:
HCT-116 = test: in vitro colon cancer cell growth inhibition (NCI screen)
NCI-H23 = test: in vitro non-small cell lung cancer cell growth inhibition (NCI screen)
K-562 = test: in vitro leukemia cell growth inhibition (NCI screen)
M19-MEL = test: in vitro melanoma cell growth inhibition (NCI screen)
HL-60(TB) = test: in vitro leukemia cell growth inhibition (NCI screen)
UO-31 = test: in vitro renal cancer cell growth inhibition (NCI screen)
UACC-62 = test: in vitro melanoma cell growth inhibition (NCI screen)
SK-MEL-2 = test: as above
HOP-92 = test: in vitro non-small cell lung cancer cell growth inhibition (NCI screen)
OVCAR-3 = test: in vitro ovarian cancer cell growth inhibition (NCI screen)
NCI-H460 = test: in vitro non-small cell lung cancer cell growth inhibition (NCI screen)
UACC-257 = test: in vitro melanoma cell growth inhibition (NCI screen)
NCI-H522 = test: in vitro non-small cell lung cancer cell growth inhibition (NCI screen)
MALME-3M = test: in vitro melanoma cell growth inhibition (NCI screen)
SK-MEL-5 = test: as above
SF-539 = test: in vitro CNS cancer cell growth inhibition (NCI screen)
LXFL 529 = test: in vitro non-small cell lung cancer cell growth inhibition (NCI screen)
HCT-15 = test: in vitro colon cancer cell growth inhibition (NCI screen)
DLD-1 = test: as above
SR = test: in vitro leukemia cell growth inhibition (NCI screen)
LOX1MVI = test: in vitro melanoma cell growth inhibition (NCI screen)
SNB-75 = test: in vitro CNS cancer cell growth inhibition (NCI screen)
COLO-205 = test: in vitro colon cancer cell growth inhibition (NCI screen)
XF-498 = test: in vitro CNS cancer cell growth inhibition (NCI screen)
MOLT-4 = test: in vitro leukemia cell growth inhibition (NCI screen)
RXF-393 = test: in vitro renal cancer cell growth inhibition (NCI screen)
human tumor cell lines = assay type: cell-based; conditions: Homo sapiens; cancer cell panel, general / most cell lines; read-out: logGI50 values in the cancer cell line panel (converted)
PC-3 = test: in vitro prostate cancer cell growth inhibition (NCI screen)
M14 = test: in vitro melanoma cell growth inhibition (NCI screen)
OVCAR-8 = test: in vitro ovarian cancer cell growth inhibition (NCI screen)
T-47D = test: in vitro breast cancer cell growth inhibition (NCI screen)
MDA-MB-435 = test: as above
OVCAR-4 = test: in vitro ovarian cancer cell growth inhibition (NCI screen); conditions: OVACR-4
MCF7/ADR-RES = test: in vitro breast cancer cell growth inhibition (NCI screen)
HT 29 = test: in vitro colon cancer cell growth inhibition (NCI screen)
ACHN = test: in vitro renal cancer cell growth inhibition (NCI screen)
CCRF-CEM = test: in vitro leukemia cell growth inhibition (NCI screen)

| SMILES | cytotoxicity log GI50 (HCT-116) [M] | cytotoxicity log GI50 (NCI-H23) [M] | cytotoxicity log GI50 (K-562) [M] | cytotoxicity log GI50 (M19-MEL) [M] | cytotoxicity log GI50 (HL-60(TB)) [M] | cytotoxicity log GI50 (UO-31) [M] | cytotoxicity log GI50 (UACC-62) [M] | cytotoxicity log GI50 (SK-MEL-2) [M] | cytotoxicity log GI50 (HOP-92) [M] | cytotoxicity log GI50 (OVCAR-3) [M] | cytotoxicity log GI50 (NCI-H460) [M] | cytotoxicity log GI50 (UACC-257) [M] | cytotoxicity log GI50 (NCI-H522) [M] | cytotoxicity log GI50 (MALME-3M) [M] | cytotoxicity log GI50 (SK-MEL-5) [M] | cytotoxicity log GI50 (SF-539) [M] | cytotoxicity log GI50 (LXFL 529) [M] | cytotoxicity log GI50 (HCT-15) [M] | cytotoxicity log GI50 (COLO-205) [M] | cytotoxicity log GI50 (RXF-393) [M] | further results |
| --- | --- | --- | --- | --- | --- | --- | --- | --- | --- | --- | --- | --- | --- | --- | --- | --- | --- | --- | --- | --- | --- |
| Cc1nc2c(n1CC(C)C)C(=O)c1ccccc1C2=O [Compound 7] | -4.68 | -4.74 | -4.52 | -4.80 | -4.64 | -4.58 | -4.68 | -4.59 | -4.99 | -4.60 | -4.63 | -4.75 | -4.58 | -4.69 | -4.73 | -4.61 | – | – | – | – | – |
| CCC(CC)n1c(C)nc2c1C(=O)c1ccccc1C2=O [Compound 10] | -4.71 | -4.67 | -4.68 | -4.83 | -4.97 | -4.71 | -4.99 | -4.56 | -4.65 | -4.59 | -4.68 | -4.62 | – | -4.58 | -4.80 | – | -4.71 | -5.04 | -4.57 | – | cytotoxicity log GI50 (DLD-1): -4.61 M; cytotoxicity log GI50 (SR): -4.59 M; cytotoxicity log GI50 (LOX1MVI): -4.71 M; cytotoxicity log GI50 (SNB-75): -4.69 M |
| CCC(C)(C)n1c(C)nc2c1C(=O)c1ccccc1C2=O [Compound 12] | -4.87 | – | -4.87 | -4.80 | -5.12 | – | -4.87 | -4.73 | – | – | -4.91 | – | – | – | -4.80 | – | -4.86 | -4.64 | -4.77 | -4.68 | cytotoxicity log GI50 (XF-498): -4.77 M; cytotoxicity log GI50 (DLD-1): -4.81 M; cytotoxicity log GI50 (SR): -5.03 M; cytotoxicity log GI50 (MOLT-4): -4.73 M; cytotoxicity log GI50 (LOX1MVI): -4.71 M |
| CCn1c(-c2ccccc2)nc2c1C(=O)c1ccccc1C2=O [Compound 25] | – | – | – | – | – | – | – | – | – | -5.23 | – | -5.41 | -4.82 | -5.06 | -4.95 | – | – | – | -4.85 | -4.81 | GI50 (human tumor cell lines): ~10 µM; cytotoxicity log GI50 (PC-3): -4.99 M; cytotoxicity log GI50 (M14): -4.81 M; cytotoxicity log GI50 (OVCAR-8): -4.85 M; cytotoxicity log GI50 (T-47D): -5.65 M; cytotoxicity log GI50 (MOLT-4): -4.83 M; cytotoxicity log GI50 (MDA-MB-435): -4.80 M; cytotoxicity log GI50 (OVCAR-4): -4.90 M; cytotoxicity log GI50 (SNB-75): -4.61 M; cytotoxicity log GI50 (MCF7/ADR-RES): -4.88 M; cytotoxicity log GI50 (HT 29): -5.05 M |
| CC(=O)NC1=C(NCC(C)(C)C)C(=O)c2ccccc2C1=O [Compound 38] | -4.47 | – | -4.42 | -4.68 | -4.49 | -4.33 | -4.41 | – | – | -4.26 | – | -4.30 | -4.72 | -4.46 | -4.40 | -4.48 | – | -4.26 | -4.41 | -4.43 | cytotoxicity log GI50 (ACHN): -4.57 M; cytotoxicity log GI50 (XF-498): -4.59 M; cytotoxicity log GI50 (CCRF-CEM): -4.42 M |
